Data reported in PubChem BioAssay AID179 (DTP/NCI, 2004).
Values joined by “and” are separate entries in the source; they are usually repeats but may differ in a detail not shown here. Identical values can stand only once. Active and inactive are the calls of the source.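 How the source made its calls: active means compounds giving half or more protection of infected cells from virus-caused growth loss, again on retest; inactive means the rest.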 Where a SMILES comes first, the peptide text is derived from it.

System: CEM cells HIV-1 protection, formazan growth assay
Test: NCI AIDS Antiviral Assay
Conditions: for IC50: measured here: growth of uninfected CEM cells
In short: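 Screen of anti-HIV-1 activity in human CEM cells using a formazan-based growth measurement at five drug concentrations. Hits with 50% or greater protection were repeated, and confirmation required reproducible complete protection.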

Row | Structure (SMILES) | EC50 [µM] | IC50 | outcome
1 | COc1ccc(-c2c3nc(c(-c4ccc(OC)cc4)c4[n-]c(c(-c5ccc(OC)cc5)c5nc(c(-c6ccc(OC)cc6)c6[n-]c2c2ccccc62)-c2ccccc2-5)c2ccccc42)-c2ccccc2-3)cc1.[Zn+2] | > 50.1 | > 50.1 µM | –
2 | O=C(NC1(C(=O)O)CC1c1ccccc1)c1ccccc1 (configuration not stated) | > 200 | > 200 µM | –
3 | C/C(CC(=O)Nc1ccc(C)c(C)c1)=N\NC(N)=S | > 891 | 117 µM | –
4 | CCSC(=O)C1(C)OC2CCCCC2C1=O (configuration not stated) | – | – | inactive
5 | Cc1cnc2sn(-c3ccc(Oc4ccccc4)cc3)c(=O)c2c1 | > 200 | 10 µM | –
6 | C=CCNC(=S)N/C=C(\C#N)c1nc2ccccc2s1 | > 200 | > 200 µM | –
7 | COc1ccc(/C=C/c2ccc3ccccc3n2)cc1OC | > 200 | 36.3 µM | –
8 | COCN1COCN(C)C1=O | > 1550 | > 1550 µM | –
9 | CC1=C(C)C(=O)c2c(cc3ccccn23)C1=O | – | – | inactive
10 | COc1cc2ccc3c(c2oc1=O)[C@@H](OC(=O)C12CCC(C)(C(=O)O1)C2(C)C)[C@@H](OC(=O)C12CCC(C)(C(=O)O1)C2(C)C)C(C)(C)O3 (some centres not stated) | 0.851 | 19.1 µM | –
11 | CC(=O)C(=Cc1ccc(N(C)C)cc1)C(C)=O | > 562 | 112 µM | –
12 | NCC1OC(OC2C(CO)OC(OC3C(O)C(N)CC(N)C3OC3OC(CN)C(O)C(O)C3N)C2O)C(N)C(O)C1O (configuration not stated) | – | – | inactive
13 | CC1CC[C@@]23CCC4(C)[C@@](C=CC5[C@@]6(C)CCC(=O)C(C)(C)C6CC[C@]54C)(OC2=O)[C@@H]3[C@H]1C (some centres not stated) | – | – | inactive
14 | S=C1N=C(Cl)C2(NN1)c1ccccc1-c1ccccc12 | > 200 | > 200 µM | –
15 | CCOC(=O)C(=O)C(CCC(=O)c1ccc2ccccc2c1O)C(=O)OCC (configuration not stated) | > 468 | 389 µM | –
16 | CN1CC(Br)(Br)C(=O)N(C)C1=O | > 200 | 3.24 µM | –
17 | CN(C)c1cc(CNCCS)nc(CNCCS)c1 | > 200 | 3.47 µM | –
18 | O=C1NC2(CCN(Cc3ccccc3)CC2)Oc2ccccc21 | > 200 | > 200 µM | –
19 | Nc1cccc(S(=O)(=O)NCC(=O)O)c1 | – | – | inactive
20 | COC(=O)c1ccc(CO/N=C(\c2ccccc2)c2ccccn2)cc1 | > 162 | 57.5 µM | –
21 | CC(C)NCC(O)COC(=O)c1cccs1 (configuration not stated) | – | – | inactive

Row | Structure (SMILES) | EC50 [µM] | IC50 | outcome
22 | COc1ccc(OC)c2c1C(=O)C1CC1(Br)C2=O (configuration not stated) | – | – | inactive
23 | COc1ccc2oc(=O)c(-c3csc(-c4ccccc4)n3)cc2c1 | – | – | inactive
24 | CCS/C(SC)=C(/c1ccccc1)[P+](c1ccccc1)(c1ccccc1)c1ccccc1 | > 20 | 0.355 µM | –
25 | O=C1OCc2cnccc21 | > 1860 | > 1860 µM | –
26 | O=C1OC(c2ccccc2)=N/C1=C\c1ccc2ccccc2c1 | > 17.4 | > 17.4 µM | –
27 | O=C1/C(=C/c2cccc([N+](=O)[O-])c2)Sc2scc(-c3ccc([N+](=O)[O-])cc3)[n+]21 | > 200 | 38 µM | –
28 | COC(=O)[C@@H]1[C@H](O)[C@H](C)[C@H](O)[C@@](C)(O)/C=C\C=C(C)C(=O)Nc2c(C)c(OC(C)=O)c3c(c2O)C(=O)C(C)=C2OCOC(=C23)C(C)=C[C@@](C)(O)[C@H](O)[C@@H](C)[C@H]1OC(C)=O | > 302 | 17 µM and > 43.7 µM | –
29 | COC(OC)c1cc2c(cc1C=O)OCO2 | – | – | inactive
30 | CCOc1ccccc1N=Nc1c(-c2ccccc2)nn(C(=O)CC(=O)Nc2cccc(Cl)c2)c1-c1ccccc1 | > 45.7 | > 45.7 µM | –
31 | OC(c1ccc(Cl)cc1)(c1ccc(Cl)cc1)c1cncnc1 | – | – | inactive
32 | COc1ccc(-c2cc(C(=O)O)c3cc4ccccc4cc3n2)cc1Br | – | – | inactive
33 | COc1ccc2c(c1)OC[C@@H]1c3cc(O)c4c(OC)cccc4c3O[C@H]21 | > 100 | 44.7 µM | –
34 | COc1ccc2cc1Oc1ccc(cc1)C[C@H]1NCCc3cc(OC)c(cc31)Oc1c(O)c(OC)cc3c1CCN(C)C3C2 (some centres not stated) | – | – | inactive
35 | CCCCCCCCCCCCCCCCCCNC(=S)/N=C\C1=C(O)c2ccccc2C1=O | > 200 | 36.3 µM | –
36 | C#CCn1c(I)cc2c(c1=O)COC(=O)[C@]2(O)CC | > 200 | > 200 µM | –
37 | COC1/C=C/OC2(C)Oc3c(C)c(O)c4c(O)c(c(/C=N/N5C(C)CN(Cc6ccccc6O)CC5C)c(O)c4c3C2=O)NC(=O)/C(C)=C\C=C\C(C)C(O)C(C)C(O)C(C)C(OC(C)=O)C1C (configuration not stated) | > 200 | 9.55 µM | –
38 | CN(C)CC1CCC(CN(C)C)C(=O)C1=O (configuration not stated) | > 200 | 0.49 µM | –
39 | CC(C)(C)NC1C2CCC(C)(C1O)C2(C)C (configuration not stated) | > 200 | > 200 µM | –
40 | CC(NC(=O)CNC(=O)C(N)CO)C(=O)NC(CCC(=O)O)C(=O)NC(CCC(=O)O)C(=O)NC(CO)C(=O)NC(CCCCN)C(=O)NC(CCC(=O)O)C(=O)NC(CCC(N)=O)C(=O)NC(CO)C(=O)N1CCCC1C(=O)NC(CC(N)=O)C(=O)NC(C)C(=O)NC(Cc1cnc[nH]1)C(=O)NC(CO)C(=O)O (configuration not stated) (H-SGAEESKEQSPNAHS-OH; configuration not given here) | > 100 | > 100 µM | –
41 | CCOC(=O)Cc1nc(Nc2ccc(F)c(Cl)c2)c2c3c(sc2n1)CCCC3 | > 12.3 | > 12.3 µM | –
42 | Cc1ccc([PH+](CC[PH+](c2ccccc2)c2ccccc2)c2ccc(C)cc2)cc1.Cc1ccc([PH+](CC[PH+](c2ccccc2)c2ccccc2)c2ccc(C)cc2)cc1.[Pt] | > 6.92 | 3.8 µM | –
